Drawing on ChEMBL document CHEMBL5291721, “A preclinical secondary pharmacology resource illuminates target-adverse drug reaction associations of marketed drugs” (Nat Commun, 2023), this text covers AC50 for eight compounds.

The target of assay [1] is T1, Corticotropin-releasing factor receptor 2 (Homo sapiens, UniProt Q13324).
T1 sequence (Q13324 whole entry): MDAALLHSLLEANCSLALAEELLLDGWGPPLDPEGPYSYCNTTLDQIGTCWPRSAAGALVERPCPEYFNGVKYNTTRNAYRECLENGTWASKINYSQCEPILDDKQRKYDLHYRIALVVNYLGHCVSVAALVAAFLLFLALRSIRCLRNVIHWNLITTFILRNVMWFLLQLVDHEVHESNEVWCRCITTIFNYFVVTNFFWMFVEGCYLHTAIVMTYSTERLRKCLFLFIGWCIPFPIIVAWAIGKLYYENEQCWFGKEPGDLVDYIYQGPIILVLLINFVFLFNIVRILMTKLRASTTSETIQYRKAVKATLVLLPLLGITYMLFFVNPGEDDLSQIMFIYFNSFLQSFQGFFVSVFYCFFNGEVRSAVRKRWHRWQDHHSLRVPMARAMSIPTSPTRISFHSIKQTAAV

Assay [2] has as its target Voltage-dependent N-type calcium channel subunit alpha-1B (Rattus norvegicus, UniProt Q02294). In kind it is functional.
The target in the next assay is Histamine H2 receptor (Homo sapiens, UniProt P25021).
In assay [3] the target is T2, Alpha-2A adrenergic receptor (Homo sapiens, UniProt P08913).
T2 sequence (P08913 whole entry): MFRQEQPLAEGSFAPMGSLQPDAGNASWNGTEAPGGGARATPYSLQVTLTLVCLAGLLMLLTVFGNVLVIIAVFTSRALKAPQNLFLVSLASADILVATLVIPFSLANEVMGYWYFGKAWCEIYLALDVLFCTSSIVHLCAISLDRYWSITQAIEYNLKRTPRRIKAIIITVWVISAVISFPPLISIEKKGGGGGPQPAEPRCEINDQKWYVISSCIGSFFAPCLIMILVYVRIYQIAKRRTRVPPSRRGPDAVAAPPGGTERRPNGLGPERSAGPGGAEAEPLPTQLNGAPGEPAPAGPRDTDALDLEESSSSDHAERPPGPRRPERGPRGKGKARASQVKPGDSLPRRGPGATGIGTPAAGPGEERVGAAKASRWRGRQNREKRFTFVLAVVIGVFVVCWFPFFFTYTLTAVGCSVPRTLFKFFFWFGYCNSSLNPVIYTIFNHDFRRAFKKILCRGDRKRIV

The next assay addresses T3, Thromboxane A2 receptor (Homo sapiens, UniProt P21731).
T3 sequence (P21731 whole entry): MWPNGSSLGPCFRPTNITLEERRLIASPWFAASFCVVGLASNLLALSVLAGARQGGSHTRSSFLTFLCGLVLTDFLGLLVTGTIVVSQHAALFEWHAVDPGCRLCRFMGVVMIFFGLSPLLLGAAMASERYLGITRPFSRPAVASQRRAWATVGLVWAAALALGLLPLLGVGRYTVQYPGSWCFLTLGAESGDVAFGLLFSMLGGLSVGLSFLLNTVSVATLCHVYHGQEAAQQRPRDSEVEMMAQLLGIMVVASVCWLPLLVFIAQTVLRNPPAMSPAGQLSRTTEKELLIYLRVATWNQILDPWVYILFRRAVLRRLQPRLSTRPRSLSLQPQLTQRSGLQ
In kind it is functional, cell-based.

Assay [4] addresses Sodium-dependent dopamine transporter (Homo sapiens, UniProt Q01959).
Assay [5] has as its target T2, Alpha-2A adrenergic receptor. The source holds these as a separate data set.
The target in assay [6] is cGMP-inhibited 3',5'-cyclic phosphodiesterase 3A (Homo sapiens, UniProt Q14432). The format is functional.
The next assay addresses T4, Adenosine receptor A3 (Homo sapiens, UniProt P0DMS8).
T4 sequence (P0DMS8 whole entry): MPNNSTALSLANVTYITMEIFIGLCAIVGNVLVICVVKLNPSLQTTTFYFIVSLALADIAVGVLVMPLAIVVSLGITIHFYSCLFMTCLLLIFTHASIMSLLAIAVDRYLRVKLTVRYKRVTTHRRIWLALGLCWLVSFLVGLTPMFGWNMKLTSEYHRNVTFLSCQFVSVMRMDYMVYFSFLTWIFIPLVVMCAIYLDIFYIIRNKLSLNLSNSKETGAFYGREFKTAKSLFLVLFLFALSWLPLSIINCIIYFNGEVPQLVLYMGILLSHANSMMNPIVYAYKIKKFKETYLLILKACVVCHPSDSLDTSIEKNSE

The next assay addresses T5, Progesterone receptor (Homo sapiens, UniProt P06401).
T5 sequence (P06401 whole entry): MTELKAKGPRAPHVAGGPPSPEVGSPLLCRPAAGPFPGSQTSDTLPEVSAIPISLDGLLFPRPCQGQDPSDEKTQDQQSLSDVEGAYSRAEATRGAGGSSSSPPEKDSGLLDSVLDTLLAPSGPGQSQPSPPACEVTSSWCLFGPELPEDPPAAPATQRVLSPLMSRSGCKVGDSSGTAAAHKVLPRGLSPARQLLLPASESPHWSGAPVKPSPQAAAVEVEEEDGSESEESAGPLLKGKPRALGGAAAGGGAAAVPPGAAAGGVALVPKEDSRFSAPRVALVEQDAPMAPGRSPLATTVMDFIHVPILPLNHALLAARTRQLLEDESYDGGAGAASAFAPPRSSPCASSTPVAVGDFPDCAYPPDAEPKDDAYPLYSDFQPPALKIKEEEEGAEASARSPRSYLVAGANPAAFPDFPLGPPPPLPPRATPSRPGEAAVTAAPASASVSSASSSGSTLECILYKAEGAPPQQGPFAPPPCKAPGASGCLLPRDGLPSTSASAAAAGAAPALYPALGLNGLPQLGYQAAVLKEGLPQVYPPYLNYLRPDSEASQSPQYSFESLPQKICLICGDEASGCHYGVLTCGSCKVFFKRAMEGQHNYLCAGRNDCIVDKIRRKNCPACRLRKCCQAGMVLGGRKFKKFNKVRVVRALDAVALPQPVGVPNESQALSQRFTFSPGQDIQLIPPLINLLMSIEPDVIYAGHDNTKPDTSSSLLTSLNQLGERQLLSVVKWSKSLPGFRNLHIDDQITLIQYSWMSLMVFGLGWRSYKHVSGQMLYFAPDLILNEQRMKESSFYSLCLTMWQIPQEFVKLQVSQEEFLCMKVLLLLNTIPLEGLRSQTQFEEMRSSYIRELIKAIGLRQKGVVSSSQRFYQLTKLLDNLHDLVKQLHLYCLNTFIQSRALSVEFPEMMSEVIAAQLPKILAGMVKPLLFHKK

The target of assay [7] is Gamma-aminobutyric acid receptor subunit alpha-1/alpha-2/beta-2/gamma-2 (Homo sapiens, UniProt P14867+P18507+P47869+P47870). In kind it is functional, cell-based.
Sequence of Gamma-aminobutyric acid receptor subunit alpha-1/alpha-2/beta-2/gamma-2 (P14867 whole entry): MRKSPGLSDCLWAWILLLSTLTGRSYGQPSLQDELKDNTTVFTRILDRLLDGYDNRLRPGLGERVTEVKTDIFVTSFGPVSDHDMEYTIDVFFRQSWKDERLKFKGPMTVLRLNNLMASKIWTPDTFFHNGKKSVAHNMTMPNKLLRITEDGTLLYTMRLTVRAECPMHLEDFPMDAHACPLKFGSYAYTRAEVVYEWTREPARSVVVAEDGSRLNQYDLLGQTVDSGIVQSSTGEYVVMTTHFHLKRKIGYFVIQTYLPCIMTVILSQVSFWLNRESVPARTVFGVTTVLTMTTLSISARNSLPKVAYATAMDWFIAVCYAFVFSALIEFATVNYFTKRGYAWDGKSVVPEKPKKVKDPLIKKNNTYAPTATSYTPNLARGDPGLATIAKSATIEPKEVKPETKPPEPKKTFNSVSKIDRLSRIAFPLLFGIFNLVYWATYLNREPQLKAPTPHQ
Sequence of Gamma-aminobutyric acid receptor subunit alpha-1/alpha-2/beta-2/gamma-2 (P47870 whole entry): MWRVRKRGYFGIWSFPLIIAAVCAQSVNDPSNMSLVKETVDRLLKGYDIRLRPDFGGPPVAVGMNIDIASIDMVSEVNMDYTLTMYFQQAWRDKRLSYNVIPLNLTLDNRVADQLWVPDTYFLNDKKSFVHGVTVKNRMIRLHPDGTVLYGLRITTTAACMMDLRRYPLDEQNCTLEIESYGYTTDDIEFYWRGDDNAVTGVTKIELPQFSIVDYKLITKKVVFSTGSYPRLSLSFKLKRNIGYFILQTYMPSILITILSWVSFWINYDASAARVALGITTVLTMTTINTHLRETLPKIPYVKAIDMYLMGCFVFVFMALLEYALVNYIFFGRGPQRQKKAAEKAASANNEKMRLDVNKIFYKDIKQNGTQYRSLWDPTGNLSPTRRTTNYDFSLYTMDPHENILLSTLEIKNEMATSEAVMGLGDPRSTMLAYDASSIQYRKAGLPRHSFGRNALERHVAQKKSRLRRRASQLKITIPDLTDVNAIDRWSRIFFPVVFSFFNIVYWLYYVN
Sequence of Gamma-aminobutyric acid receptor subunit alpha-1/alpha-2/beta-2/gamma-2 (P18507 whole entry): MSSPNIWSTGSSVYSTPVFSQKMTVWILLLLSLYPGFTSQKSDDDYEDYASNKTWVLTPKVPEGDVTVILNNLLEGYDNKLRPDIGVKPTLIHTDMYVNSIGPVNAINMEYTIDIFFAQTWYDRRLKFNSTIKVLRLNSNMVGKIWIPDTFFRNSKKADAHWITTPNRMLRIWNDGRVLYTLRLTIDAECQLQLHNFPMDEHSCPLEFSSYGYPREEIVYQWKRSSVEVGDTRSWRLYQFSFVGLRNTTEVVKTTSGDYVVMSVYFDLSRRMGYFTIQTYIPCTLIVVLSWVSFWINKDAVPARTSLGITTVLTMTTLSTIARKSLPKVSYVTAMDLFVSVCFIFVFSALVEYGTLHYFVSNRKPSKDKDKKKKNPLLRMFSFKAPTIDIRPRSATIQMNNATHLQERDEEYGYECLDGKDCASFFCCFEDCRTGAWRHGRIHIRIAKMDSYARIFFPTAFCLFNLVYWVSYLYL
Sequence of Gamma-aminobutyric acid receptor subunit alpha-1/alpha-2/beta-2/gamma-2 (P47869 whole entry): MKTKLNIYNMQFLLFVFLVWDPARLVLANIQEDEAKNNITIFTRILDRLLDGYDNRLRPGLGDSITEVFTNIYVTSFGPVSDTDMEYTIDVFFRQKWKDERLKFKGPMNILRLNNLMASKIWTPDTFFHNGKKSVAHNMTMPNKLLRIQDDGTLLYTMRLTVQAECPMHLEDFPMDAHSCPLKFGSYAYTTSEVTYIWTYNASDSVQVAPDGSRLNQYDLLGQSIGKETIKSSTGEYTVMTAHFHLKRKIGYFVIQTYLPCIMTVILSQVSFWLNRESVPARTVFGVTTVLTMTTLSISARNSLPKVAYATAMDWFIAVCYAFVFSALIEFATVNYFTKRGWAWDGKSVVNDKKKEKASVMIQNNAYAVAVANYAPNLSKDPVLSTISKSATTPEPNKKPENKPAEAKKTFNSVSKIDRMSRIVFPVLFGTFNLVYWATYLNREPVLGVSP

Bounds are passed on as bounds.
Also: assay procedure not described here.

Sequence of Sodium-dependent dopamine transporter (Q01959 whole entry): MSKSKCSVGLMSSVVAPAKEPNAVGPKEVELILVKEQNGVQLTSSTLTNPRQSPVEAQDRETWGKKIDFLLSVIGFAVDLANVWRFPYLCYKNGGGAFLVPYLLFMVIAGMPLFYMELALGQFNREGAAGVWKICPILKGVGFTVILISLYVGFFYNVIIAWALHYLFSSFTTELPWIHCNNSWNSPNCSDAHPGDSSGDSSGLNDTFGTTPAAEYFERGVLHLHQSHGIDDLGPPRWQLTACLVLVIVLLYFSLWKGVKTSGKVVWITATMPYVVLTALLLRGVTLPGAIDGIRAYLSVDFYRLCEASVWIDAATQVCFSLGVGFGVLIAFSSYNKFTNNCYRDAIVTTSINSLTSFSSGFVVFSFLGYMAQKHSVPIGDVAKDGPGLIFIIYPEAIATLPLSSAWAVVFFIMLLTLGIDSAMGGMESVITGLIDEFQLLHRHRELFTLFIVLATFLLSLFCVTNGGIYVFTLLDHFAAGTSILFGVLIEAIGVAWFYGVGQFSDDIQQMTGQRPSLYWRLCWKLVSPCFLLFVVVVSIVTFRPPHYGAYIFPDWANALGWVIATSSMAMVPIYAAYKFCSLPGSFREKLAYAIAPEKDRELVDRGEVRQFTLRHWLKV
Sequence of Voltage-dependent N-type calcium channel subunit alpha-1B (Q02294 whole entry): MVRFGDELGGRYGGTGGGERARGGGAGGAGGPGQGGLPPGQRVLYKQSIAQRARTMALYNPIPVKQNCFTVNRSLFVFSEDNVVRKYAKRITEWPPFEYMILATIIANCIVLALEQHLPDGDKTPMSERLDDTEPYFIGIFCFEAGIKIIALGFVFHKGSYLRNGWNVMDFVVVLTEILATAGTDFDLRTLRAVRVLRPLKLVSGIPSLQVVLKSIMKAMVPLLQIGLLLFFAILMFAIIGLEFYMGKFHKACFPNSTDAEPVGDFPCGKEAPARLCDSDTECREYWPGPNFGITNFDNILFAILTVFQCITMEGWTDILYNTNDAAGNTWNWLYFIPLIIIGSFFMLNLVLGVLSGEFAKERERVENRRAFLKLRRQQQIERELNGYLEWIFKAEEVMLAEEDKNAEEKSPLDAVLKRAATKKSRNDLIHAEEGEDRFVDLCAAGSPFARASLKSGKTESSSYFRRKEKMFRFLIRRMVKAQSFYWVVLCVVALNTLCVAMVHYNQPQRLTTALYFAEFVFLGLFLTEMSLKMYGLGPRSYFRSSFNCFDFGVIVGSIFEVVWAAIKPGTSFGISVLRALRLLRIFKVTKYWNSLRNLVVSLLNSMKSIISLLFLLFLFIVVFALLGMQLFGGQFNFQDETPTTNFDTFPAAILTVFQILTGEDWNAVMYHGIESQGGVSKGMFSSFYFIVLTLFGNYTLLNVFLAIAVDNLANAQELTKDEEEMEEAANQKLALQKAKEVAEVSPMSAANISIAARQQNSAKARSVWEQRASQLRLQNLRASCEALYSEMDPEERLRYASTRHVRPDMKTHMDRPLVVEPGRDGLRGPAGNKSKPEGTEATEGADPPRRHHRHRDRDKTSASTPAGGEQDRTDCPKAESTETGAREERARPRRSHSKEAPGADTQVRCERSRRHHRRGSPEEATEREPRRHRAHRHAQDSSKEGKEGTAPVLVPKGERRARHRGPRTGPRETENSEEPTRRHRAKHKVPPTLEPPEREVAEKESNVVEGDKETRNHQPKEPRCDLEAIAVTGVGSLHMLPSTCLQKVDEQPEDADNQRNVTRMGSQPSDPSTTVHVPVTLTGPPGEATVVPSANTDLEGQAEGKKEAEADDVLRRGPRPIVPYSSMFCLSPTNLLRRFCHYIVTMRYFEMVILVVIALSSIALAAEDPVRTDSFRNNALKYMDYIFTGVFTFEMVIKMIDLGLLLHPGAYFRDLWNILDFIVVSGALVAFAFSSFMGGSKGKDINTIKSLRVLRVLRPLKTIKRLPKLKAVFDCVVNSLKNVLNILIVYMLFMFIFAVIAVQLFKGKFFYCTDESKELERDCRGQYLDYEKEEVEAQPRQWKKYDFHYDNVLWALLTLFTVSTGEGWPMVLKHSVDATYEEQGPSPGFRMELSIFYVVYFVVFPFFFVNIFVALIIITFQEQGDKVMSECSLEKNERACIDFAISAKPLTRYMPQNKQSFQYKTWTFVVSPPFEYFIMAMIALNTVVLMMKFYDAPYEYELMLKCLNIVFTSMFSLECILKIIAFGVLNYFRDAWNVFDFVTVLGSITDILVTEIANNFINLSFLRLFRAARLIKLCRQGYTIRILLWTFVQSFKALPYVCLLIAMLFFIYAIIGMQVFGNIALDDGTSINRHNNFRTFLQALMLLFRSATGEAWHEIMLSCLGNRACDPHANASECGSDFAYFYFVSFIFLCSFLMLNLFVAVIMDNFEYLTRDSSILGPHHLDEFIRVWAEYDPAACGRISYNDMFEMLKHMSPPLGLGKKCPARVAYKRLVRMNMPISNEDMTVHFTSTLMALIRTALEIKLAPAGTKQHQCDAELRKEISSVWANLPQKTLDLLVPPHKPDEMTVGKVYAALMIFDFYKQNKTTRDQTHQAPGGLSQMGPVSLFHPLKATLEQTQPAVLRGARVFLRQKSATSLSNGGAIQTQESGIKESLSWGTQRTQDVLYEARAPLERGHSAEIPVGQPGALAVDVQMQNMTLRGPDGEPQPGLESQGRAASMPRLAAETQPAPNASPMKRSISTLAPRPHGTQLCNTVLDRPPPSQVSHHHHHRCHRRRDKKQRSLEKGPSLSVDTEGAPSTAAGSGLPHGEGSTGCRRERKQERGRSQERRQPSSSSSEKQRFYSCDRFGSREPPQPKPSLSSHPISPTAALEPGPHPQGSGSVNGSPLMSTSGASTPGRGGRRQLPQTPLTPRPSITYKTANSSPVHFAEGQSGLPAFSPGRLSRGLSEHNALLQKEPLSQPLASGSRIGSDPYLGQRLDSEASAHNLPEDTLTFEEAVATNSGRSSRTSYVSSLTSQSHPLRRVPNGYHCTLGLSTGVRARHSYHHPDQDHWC

By AC50 is commonly meant the concentration giving half of the maximal activity seen. As to `Cn1c(=O)cc(N2CCC[C@@H](N)C2)n(Cc2ccccc2C#N)c1=O` [ALOGLIPTIN], the AC50 was more than 30 µM in assay [1], more than 10 µM in assay [2], more than 10 µM on Histamine H2 receptor and more than 10 µM in [3].
Take `Nc1c2ccccc2nc2ccccc12` [AMINACRINE]: the AC50 was more than 30 µM at Thromboxane A2 receptor; more than 30 µM in assay [4]; 16.9 µM in assay [5]; more than 30 µM in assay [6]; 9.62 µM at Adenosine receptor A3; more than 30 µM on Progesterone receptor.
In [7], `CCN1CCCC1CNC(=O)c1cc(S(=O)(=O)CC)c(N)cc1OC` (configuration not stated) [AMISULPRIDE] registered a concentration at half-maximal activity (AC50) of more than 30 µM.
The same measure, in the same setting: for `Oc1ccc2c(c1)[C@@]13CCCC[C@@]1(O)[C@@H](C2)N(CC1CCC1)CC3` [BUTORPHANOL] the value was more than 30 µM.
On to `CC(=O)OCC(=O)[C@@]1(O)[C@H](C)C[C@H]2[C@@H]3CCC4=CC(=O)C=C[C@]4(C)[C@@]3(F)[C@@H](O)C[C@@]21C` [DEXAMETHASONE ACETATE], for which the AC50 was more than 30 µM in assay [1] and more than 10 µM in assay [2].
`O=C(O)CCCCC1CCSS1` (stereo not drawn) [LIPOIC ACID, ALPHA]: the AC50 (at Thromboxane A2 receptor; in [4]; in assay [5]; in assay [6]; on Adenosine receptor A3; at Progesterone receptor) was more than 30 µM throughout.
Turning to `Cc1ncc2n1-c1ccc(Cl)cc1C(c1ccccc1F)=NC2` [MIDAZOLAM], the AC50 in assay [3] was more than 10 µM.
`Cn1cnc2c(F)c(Nc3ccc(Br)cc3Cl)c(C(=O)NOCCO)cc21` [SELUMETINIB] returned an AC50 at Histamine H2 receptor of more than 10 µM.
